Molecular target: T1, ATP synthase subunit c (Escherichia coli, UniProt P68699)
T1 construct: gene atpE; native ATP synthase in membrane vesicles of E. coli ATCC 25922; with whole ATP synthase complex
Test: inhibition of NADH-driven ATP synthesis in E. coli membrane vesicles, luminescence (ATPlite), Dixon-type Ki
Format: biochemical
Settings: read-out: Ki (μM) In Vitro

T1 sequence (P68699 whole entry): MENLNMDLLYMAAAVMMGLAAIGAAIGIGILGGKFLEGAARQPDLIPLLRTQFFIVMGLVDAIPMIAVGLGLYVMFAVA

SMILES | Ki
C[C@H]1CCC2(NC1)O[C@H]1C[C@H]3[C@@H]4CCC5C[C@@H](NCCN)CC[C@]5(C)[C@H]4CC[C@]3(C)[C@H]1[C@@H]2C (some centres unmarked) [TM-02] | 1.1 µM
C[C@H]1CCC2(NC1)O[C@H]1C[C@H]3[C@@H]4CCC5C[C@H](NCCN)CC[C@]5(C)[C@H]4CC[C@]3(C)[C@H]1[C@@H]2C (some centres unmarked) [TM-03] | 3.5 µM

— publication PMC10821064, “Mode of Antibacterial Action of Tomatidine C3-Diastereoisomers” (Molecules, 2024)
